Data as given in patent US7772425B2, “Vitamin D receptor modulators” (Eli Lilly and Company, priority 2002, dated 2010).
pEC50, pIC50: −log10 of the molar value. Where “and” joins values, the source holds several entries; their conditions need not be identical. Equal entries are not always repeated. Where two headings read alike, the source gives them in different places.

Tests used:
[1] = test system: KERtr cells (Human skin keratinocyte); experiment: Keratinocyte proliferation assay; type: cell-based; conditions: BrdU incorporation, read-out: Kera. Prolif. IC50
Description: 5. The Keratinocyte Proliferation Assay
This Assay is indicative for the treatment of psoriasis.
(5) The Keratinocyte Proliferation Assay:
KERtr cells (Human skin keratinocyte transformed with a retrovirus vector, obtained from ATCC) were plated in 96-well flat-bottomed plates (3000 cells/well) in 100 μl keratinocyte serum free medium supplemented with bovine pituitary extract in the absence of EGF (Life Technologies, Rockville, Md.) and incubated at 37° C. for two days. The cells were treated with various concentrations of VDR ligands (ten-fold serial dilution from 10,000 nM to 0.1 nM in triplicate), dissolved in 100 μl keratinocyte serum free medium supplemented with bovine pituitary extract in the absence of EGF and incubated at 37° C. for 72 hr. BrdU (5-bromo-2′-deoxyuridine) incorporation was analyzed as a measure of DNA replication (Cell proliferation ELISA kit, Roche Diagnostics, Indianapolis, Ind.) and absorbance was measured at 405 nm. Potency values (IC50) values were determined as the concentration (nM) of compound that elicited a half-maximal response.

female DBF mice = experiment: Mouse hypercalcemia assay; type: in vivo; conditions: orally via gavage for 6 days; serum ionized calcium 6 hours after last dosing
Text: 4. The Mouse Hypercalcemia Assay
(4) Materials and Method for The Mouse Hypercalcemia Assay: […]

IL-10 = experiment: human IL-10 induction assay in PBMCs; type: cell-based; conditions: TPA/PHA treated human PBMCs, IL-10 immunoassay of supernatant
Text: The evaluation of the novel compounds of the invention for psoriasis is done using the Keratinocyte Proliferation Assay in combination with other assays that measure inhibition of IL-2 production and stimulation of IL-10 production in peripheral blood mononuclear cells (PBMCs).
6. The IL-10 Induction Assay
This is an in vitro efficacy assay for psoriasis, abscess and adhesion. Psoriasis involves both keratinocytes and immune cells. IL-10 is a unique cytokine because it is anti-inflammatory and immunosuppressive. This assay tells us whether a VDRM is able to function as an agonist in PBMCs (primary blood mononuclear cells) or not. A lower EC50 value is desirable in this assay since a compound with a lower EC50 value will be a better agonist in PBMCs.
(6) Materials and Method for human IL-10 Induction Assay:
Isolation of peripheral blood mononuclear cells (PBMCs):
• A. Collect 50 ml of human blood and dilute with media, RPMI-1640. • B. Prepare sterile tubes with ficol. • C. Add diluted blood to tubes. • D. Centrifuge. • E. Discard the top layer and collect the cells from middle layer. • F. Divide all cells into four tubes and add media. • G. Centrifuge. • H. Aspirate off media and resuspend. • I. Collect all cells • J. Centrifuge. at 1200 rpm for 10 minutes. • K. Resuspend in RPMI-1640 with 2% FBS and count cells Stimulation of PBMC: • L. Prepare TPA in DMSO. • M. Dissolve PHA in water. • N. Plate TPA/PHA treated PBMCs in well plates. • O. Incubate. Treatment: • P. Prepare all compound dilutions in plain RPMI-1640 media. • Q. Add diluted compound. • R. Incubate. Sample Collection and assay: • S. Remove all the cells by centrifugation and assay the supernatant for IL-10 by immunoassay. • 1) T. Perform IL-10 assay using anti-human IL-10 antibody coated beads, as described by the manufacturer (Linco Research Inc., St. Charles, Mo.).

rat osteocalcin promoter = experiment: OCN (osteocalcin) promoter assay in RG-15 (ROS 17/2.8) cells; type: cell-based; conditions: 48 hr treatment, luciferase
Description: 3. The OCN (Osteocalcin) Promoter Assay
The OCN Promoter Assay is an indicator and marker for osteoporosis. […] Preferred assay results are less than 50 nM.
(3) Materials and Method for The OCN Promoter Assay:
The activation of osteocalcin by VDR ligands was evaluated in a rat osteoblast-like cell line RG-15 (ROS 17/2.8) stably expressing rat osteocalcin promoter fused with luciferase reporter gene. […] Confluent RG-15 cells maintained in DMEM/F-12 medium (3:1) containing 5% FBS, 300 μg/ml G418 and at 37° C. under 5% CO2/95% air atmosphere were trypsinized (0.25% trypsin) and plated into white opaque 96-well cell culture plates (25000 cells/well). After 24 hr, cells (in DMEM/F-12 medium+2% FBS) were treated with various concentrations of compounds, dissolved in DMSO. The final DMSO concentration remained at 0.01% (v/v). After 48 hr treatment, the medium was removed, cells were lysed with 50 μl of lysis buffer (From Luciferase reporter assay system, Roche Diagnostics, Indianapolis, Ind.) and assayed for luciferase activity using the Luciferase Reporter Gene Assay kit from Boehringer Mannheim as per manufacturer's specifications.

[2] = Homo sapiens, Keratinocyte, 72 h

| SMILES | pIC50 ([1]; 72 hr) | Mouse Hypercal (female DBF mice) | pIC50 (IL-10) | pIC50 [1, 2] | pIC50 (IL-10; Homo sapiens, PBMC) | pEC50 (rat osteocalcin promoter) | pEC50 (rat osteocalcin promoter; Rattus norvegicus, 48 h) |
| --- | --- | --- | --- | --- | --- | --- | --- |
| CCC(CC)(c1ccc(C(=O)O)cc1)c1ccc(OCC(O)C(C)(C)C)c(Cl)c1 (single isomer, unassigned) [Ex. 36, 3′-[3-chloro-4-(2-hydroxy-3,3-dimethylbutoxy)phenyl]-3′-[4-carboxyphenyl]pentane] | 6.86 | >300 µg/kg/day |  |  |  |  |  |
| CCC(CC)(c1ccc(OC(C)C(O)C(C)(C)C)c(C)c1)c1ccc(C(=O)N(C)CC(=O)O)c(C)c1 (single isomer, unassigned) [Ex. 53, [(4-{1-Ethyl-1-[4-(2-hydroxy-1,3,3-trimethyl-butoxy)-3-methyl-phenyl]-propyl}-2-methyl-benzoyl)-methyl-amino]-acetic acid] | 6.65 | >3000 µg/kg/day |  |  |  |  |  |
| CCC(CC)(c1ccc(OC(C)C(O)C(C)(C)C)c(C)c1)c1ccc(C(=O)Nc2nnn[nH]2)c(C)c1 (single isomer, unassigned) [Ex. 30, 3′-[4-(2-hydroxy-1,3,3-trimethylbutoxy)-3-methylphenyl]-3′-[4-(tetrazol-5-ylaminocarbonyl)-3-methylphenyl]pentane] | 7.70 | 1000 µg/kg/day | 6.91 |  |  |  |  |
| CCC(CC)(c1ccc(OCC(=O)C(C)(C)C)c(C)c1)c1ccc(C(=O)O)c(C)c1 [Ex. 17, 4-{1-[4-(3,3-dimethyl-2-oxobutoxy)-3-methylphenyl]-1-ethylpropyl}-2-methylbenzoic acid] |  | >3000 µg/kg/day |  | 6.00 |  |  |  |
| CCC(CC)(c1ccc(C(=O)O)cc1)c1ccc(OCC(O)C(C)(C)C)c(C)c1 (single isomer, unassigned) [Ex. 22, 4-{1-Ethyl-1-[4-(2-hydroxy-3,3-dimethylbutoxy)-3-methylphenyl]-propyl}benzoic acid] | 8.40 | 1000 µg/kg/day |  |  | 7.41 |  |  |
| CCC(CC)(c1ccc(COCC(=O)O)c(C)c1)c1ccc(OCC(O)C(C)(C)C)c(C)c1 (single isomer, unassigned) [Ex. 33, (4-{1-ethyl-1-[4-(2-hydroxy-3,3-dimethyl-butoxy)-3-methyl-phenyl]-propyl}-2-methyl-benzyloxy)-acetic acid] |  | <300 µg/kg/day |  | 8.22 | 7.72 |  |  |
| CCC(CC)(c1ccc(CCC(=O)N(C)C)c(C)c1)c1ccc(OCC(O)C(C)(C)C)c(C)c1 (stereo not shown) [Ex. 8, 3′-[4-(2-hydroxy-3,3-dimethylbutoxy)-3-methylphenyl]-3′-[4-(2-dimethylcarbamoylethyl)-3-methylphenyl]pentane] |  | 100 µg/kg/day |  | 6.48 |  |  |  |
| CCC(CC)(c1ccc(OCC(O)C(C)(C)C)c(C)c1)c1ccc(C(=O)NCCS(C)(=O)=O)c(C)c1 (single isomer, unassigned) [Ex. 15A, 4-{1-ethyl-1-[4-(2-hydroxy-3,3-dimethylbutoxy)-3-methylphenyl]propyl}-N-(2-methanesulfonylethyl)-2-methylbenzamide] |  | 1500 µg/kg/day |  | 6.93 |  | 7.46 and 7.37 |  |
| CCC(CC)(c1ccc(OC(C)C(O)C(C)(C)C)c(C)c1)c1ccc(C(=O)O)c(C)c1 (racemic) [Ex. 28, 4-{1-Ethyl-1-[4-(2-hydroxy-1,3,3-trimethyl-butoxy)-3-methyl-phenyl]-propyl}-2-methyl-benzoic acid] |  |  |  | 6.62 |  | 7.08 | 6.97 |
| CCC(CC)(c1ccc(OC(C)C(O)C(C)(C)C)c(C)c1)c1ccc(C(=O)NCC(=O)O)c(C)c1 (single isomer, unassigned) [Ex. 32, 3′-[4-(2-hydroxy-1,3,3-trimethylbutoxy)-3-methylphenyl]-3′-[4-(carboxymethylaminocarbonyl)-3-methylphenyl]pentane] | 6.00 | 1000 µg/kg/day | 6.97 |  |  |  |  |
| CCC(CC)(c1ccc(OCC(O)C(C)(C)C)c(C)c1)c1ccc(C(=O)NC(C)(C)C(=O)O)c(C)c1 (single isomer, unassigned) [Ex. 20B, 2-(4-{1-Ethyl-1-[4-(2-hydroxy-3,3-dimethyl-butoxy)-3-methyl-phenyl]-propyl}-2-methyl-benzoylamino)-2-methyl-propionic acid] |  | 300 µg/kg/day |  | 8.52 | 8.40 |  |  |
| CCC(CC)(c1ccc(OC(C)C(O)C(C)(C)C)c(C)c1)c1ccc(C(=O)N[C@@H](C)C(=O)O)c(C)c1 (stereo partly shown) [Ex. 47, (L)-2-(4-{1-Ethyl-1-[4-(2-hydroxy-1,3,3-trimethyl-butoxy)-3-methyl-phenyl]-propyl}-2-methyl-benzoylamino)-propionic acid] |  | 3000 µg/kg/day |  | 6.00 |  |  |  |
| CCC(CC)(c1ccc(OCC(O)C(C)(C)C)c(C)c1)c1ccc(C(=O)NS(C)(=O)=O)c(C)c1 (stereo not shown) [Ex. 5] |  | 100 µg/kg/day |  | 6.43 |  |  | 7.38 |
| CCC(CC)(c1ccc(OCC(O)C(C)(C)C)c(C)c1)c1ccc(C(=O)N[C@H](C)C(=O)O)c(C)c1 (stereo partly drawn) [Ex. 34, D-2-(4-{1-ethyl-1-[4-(2-hydroxy-3,3-dimethyl-butoxy)-3-methyl-phenyl]-propyl}-2-methyl-benzoylamino)-propionic acid] |  | <300 µg/kg/day |  | 7.60 | 7.35 |  |  |
| CCC(CC)(c1ccc(C(=O)O)cc1)c1ccc(OCC(O)C(C)(C)C)c(Cl)c1 (racemic) [Ex. 35, 3′-[3-chloro-4-(2-hydroxy-3,3-dimethylbutoxy)phenyl]-3′-[4-carboxyphenyl]pentane] |  |  |  | 7.40 |  |  | 7.57 |
| CCC(CC)(c1ccc(OC(C)C(O)C(C)(C)C)c(C)c1)c1ccc(C(=O)N[C@H](C)C(=O)O)c(C)c1 (stereo partly shown) [Ex. 48, (D)-2-(4-{1-ethyl-1-[4-(2-hydroxy-1,3,3-trimethyl-butoxy)-3-methyl-phenyl]-propyl}-2-methyl-benzoylamino)-propionic acid] | 6.00 | <1000 µg/kg/day |  |  |  |  |  |
| CCC(CC)(c1ccc(C(=O)O)cc1)c1ccc(OCC(=O)C(C)(C)C)c(C)c1 [Ex. 21, 4-{1-[4-(3,3-Dimethyl-2-oxo-butoxy)-3-methyl-phenyl]-1-ethyl-propyl}-benzoic acid] |  | 6000 µg/kg/day |  | 6.65 | 5.98 |  |  |
| CCC(CC)(c1ccc(C(=O)O)cc1)c1ccc(OCC(O)C(C)(C)C)c(C)c1 (single isomer, unassigned) [Ex. 23, 4-{1-Ethyl-1-[4-(2-hydroxy-3,3-dimethylbutoxy)-3-methylphenyl]-propyl}benzoic acid] | 7.40 | 3000 µg/kg/day | 7.57 |  |  |  |  |
| CCC(CC)(c1ccc(CCC(=O)N(C)C)c(C)c1)c1ccc(OCC(=O)C(C)(C)C)c(C)c1 [Ex. 7, 3′-[4-(2-oxo-3,3-dimethylbutoxy)-3-methylphenyl]-3′-[4-(2-dimethylcarbamoylethyl)-3-methylphenyl]pentane] |  |  |  | 7.74 |  |  | 8.40 |
| CCC(CC)(c1ccc(OCC(=O)C(C)(C)C)c(C)c1)c1ccc(OCC(=O)C(C)(C)C)c(C)c1 [DD, reference compound] |  | 1000 µg/kg/day |  | 5.97 |  |  | 7.51 |
